Assay results as given in article PMC8419995, “In vitro and in vivo efficacy of thiacloprid against Echinococcus multilocularis” (Parasites & Vectors, 2021).

What was measured:
[1] = tested on: T lymphocyte subsets in metacestodes and spleen; test: T lymphocyte subset analysis and spleen index in infected mice; type: in vivo; conditions: infected BALB/c mice; 6 weeks oral treatment; flow cytometry
Description: In vitro-grown metacestode vesicles were pressed through a 500 µm mesh and washed three times with sterile PBS. The parasite tissue was then taken up in an equal volume of sterile PBS. Each mouse was intraperitoneally injected with 200 μl suspension. Seven mice were injected with 200 μl PBS as the control group. Twenty-eight infected mice were randomly distributed into four groups (7 mice/group): the untreated group was not administered any drug; the ABZ group was treated with ABZ orally (100 mg/kg/day); and the Thia15 group and Thia30 group received thiacloprid orally (15 mg/kg/day and 30 mg/kg/day). Treatments of mice started 2 weeks post-infection, and treatments were administered daily for 6 weeks. […] All metacestode tissues were collected, and the total wet weight of metacestodes per mice was determined. Furthermore, the content of cytokines in microcyst fluid was detected by enzyme-linked immunosorbent assay (ELISA). […]
The spleens of mice were removed and then weighed to calculate the spleen index. […] The lymphocytes were incubated with FITC-conjugated anti-CD3 (BioLegend, San Diego, CA, USA), PE-conjugated anti-CD4 (BioLegend), and APC-conjugated anti-CD8 (BioLegend) antibodies, and then analyzed by flow cytometry using a NovoCyte flow cytometer (ACEA/Agilent, Santa Clara, CA, USA).

[2] = tested on: E. multilocularis metacestodes; test: Morphology of in vitro treated metacestode vesicles (light microscope, SEM, TEM); type: cell-based, Echinococcus multilocularis; conditions: 5 μM, 5 days
Description: The variations in the microstructure of the protoscoleces or metacestodes were observed under an electron microscope. In vitro-cultured E. multilocularis protoscoleces and metacestodes were treated with thiacloprid at 0 and 5 μM for 5 days at 37 °C and 5% CO2. They were washed twice in PBS and then fixed for 3 h with 2.5% glutaraldehyde (pH = 7.2); next, they underwent 2 h post-fixation in 2% OsO4 (SPI-CHEM, West Chester, PA, USA). Subsequently, the samples were washed in double-distilled water and treated with 1% uranyl acetate for 25 min. After the samples were washed again in double-distilled water, dehydration was conducted in ethanol at continuous gradients (30–50–70–80–90–95–100%) over a period of 10 min. For SEM analysis, the dehydrated samples were dipped into hexamethyldisiloxane and then air-dried in a fume hood. The sample was observed under a Hitachi SU8100 scanning electron microscope (Tokyo, Japan) after gold spraying. For TEM analysis, the dehydrated samples passed through a dehydrating agent, and an epoxy resin (SPI-CHEM) permeated and polymerized at 60 °C overnight. A 50-nm ultra-thin section was prepared and then loaded on a 300-mesh copper grid. It was stained with uranyl acetate and lead citrate (SPI-CHEM). The sample was observed under a Hitachi HT7700 transmission electron microscope. […]

[3] = tested on: E. multilocularis germinal cells; test: CellTiter-Glo viability assay on germinal cells; type: cell-based, Echinococcus multilocularis; conditions: 5 days
Description: To evaluate the activity of thiacloprid against parasitic stem cells, germinal cells from in vitro metacestode vesicles were investigated as described by Spiliotis et al.. Briefly, 20 units of cells were distributed into a black 384-well plate. Different concentrations of thiacloprid or PZQ (0, 0.06, 1.2, 2.5, 5, 10, 20, 40, 80 and 160 μM) were added to the cells. After culture at 37 °C for 5 days under a humid nitrogen atmosphere, 25 μl CellTiter-Glo containing 1% Triton X-100 was added. The plates were incubated at room temperature in the dark for 15 min. After the total destruction of the cellular aggregates, luminescence was measured using an Infinite M200 PRO reader (Tecan), and 0 μM values were set to 100% viability. The IC50 values were calculated using an online IC50 calculator after logit-log transformation. Four independent replicates were conducted.

[4] = tested on: E. multilocularis protoscoleces; test: Protoscolex viability, 0.1% eosin exclusion test; type: cell-based, Echinococcus multilocularis
Description: Viable protoscoleces were cultured in Medium 199, supplemented with 1% penicillin–streptomycin, 50 μg/ml gentamicin and 4 mg/ml glucose according to a previously described method. […] PZQ was used as a positive control. The protoscoleces were cultured in an incubator at 37 °C and 5% CO2 for 7 days. Additionally, 0.1% eosin exclusion test was used to evaluate the viability of protoscoleces. To reduce the bias as much as possible, protoscolex viability was observed by two experimenters under double-blind conditions. Each experiment was conducted three times.

acetylcholinesterase = test: Acetylcholinesterase activity (Ellman) in extracts of protoscoleces, metacestodes and germinal cells; type: biochemical, Echinococcus multilocularis; conditions: extract; thiacloprid 5 μM, 37 °C 10 min; BW284c51 positive control
Description: The effects of thiacloprid on the acetylcholinesterase activity of E. multilocularis protoscoleces, metacestodes and germinal cells were determined according to a previously described method. The protoscoleces, metacestode and germinal cells were washed twice with PBS and homogenized with an electric homogenizer in precooled PBS. Centrifugation of the homogenates was performed at 100,000×g for 30 min. The protein concentration of the supernatant was determined by the modified Lowry method according to the instructions, and the concentration was adjusted to 2 mg/ml. Thiacloprid (5 μM) was added to the extract and incubated at 37 °C for 10 min. The extract was supplemented with 0.1% DMSO as control. Subsequently, acetylcholinesterase activity was assessed according to Ellman’s procedure using a microplate with 260 µl of 0.1 M PBS buffer pH 8.0, 10 µl of 10 mM dithiobisnitrobenzoic acid solution, 2.5 µl of 75 mM substrate (acetylthiocholine iodide) and 25 µl of the sample treated with thiacloprid. The OD increment was measured at 412 nm using an Infinite M200 PRO reader (Tecan). Each experiment was conducted three times. BW284c51 (CAS number: 402-40-4, Sigma) was used as a positive control.

N#C/N=C1\SCCN1Cc1ccc(Cl)nc1 [thiacloprid]
CD4+ T lymphocytes in the metacestodes and spleen compared with the untreated group [1]: increased | CD8+ T lymphocytes in the metacestodes and spleen compared with the untreated group [1]: decreased | Morphological alterations of metacestode vesicles under a light microscope [2]: contraction and collapse | TEM of metacestode vesicles [2]: obvious ultrastructural damage | viability at 2.5 µM ([3]; Echinococcus multilocularis, 120 h, 2.5 μM, read-out: Cell viability rate of germinal cells): 58.3 ± 6.09% | viability at 5 µM ([3]; Echinococcus multilocularis, 120 h, 5 μM, read-out: Cell viability rate of germinal cells): 38.3 ± 4.47% | IC50 ([3]; Echinococcus multilocularis, 120 h, CellTiter-Glo, read-out: IC50 against germinal cells): 2890 ± 340 nM | Inhibition rate of germinal cell viability ([3]; more than 10 μM): more than 80% | Effect on protoscolex viability ([4]; 1.2 μM): no significant effect | Dead protoscoleces ([4]; 5 μM for 4 days): 47.33 ± 4.04% | Acetylcholinesterase activity in protoscoleces, metacestode vesicles and germinal cells (acetylcholinesterase): suppressed
